How the values were obtained:
[1] = test system: 5HT2A sensor; format: cell-based
[2] = test system: mice; conditions: mouse, in vivo
[3] = test system: 5HT2A sensor; format: cell-based; remark: listed apart in the source
[4] = target: T1, 5-HT2A (Homo sapiens, UniProt P28223); test: Serotonin 5-HT2A in vitro cellular IPOne antagonism assay; format: cell-based; set-up: host or cells: CHO-K1; conditions: CHO-K1 cells; reference agonist a-Me-5HT
Protocol: (§1) Serotonin 5-HT2A In Vitro Cellular IPOne Antagonism Assay. The 5-HT2A IPOne HTRF assay was performed at Epics Therapeutics S.A. (Belgium, FAST-0505I) in antagonism mode using conventional methods. Briefly, CHO-K1 cells expressing human recombinant 5-HT2A receptor grown to mid-log phase in culture media without antibiotics were detached with PBS-EDTA, centrifuged, and resuspended in medium without antibiotics buffer. 20,000 cells are distributed in a 96 well plate and incubated overnight at 37° C. with 5% CO2.
For antagonist testing, a reference agonist a-Me-5HT was added and fluorescence signal monitored for several minutes, followed by addition of 20 μl of assay buffer plus 20 μl of test compound or reference antagonist ketanserin, in each well. The plate was incubated for 60 min. at 37° C. with 5% CO2.
After addition of the lysis buffer containing IP1-d2 and anti-IP1 cryptate detection reagents, plates were incubated 1-hour at room temperature, and fluorescence ratios are measured according to the manufacturer specification, with the HTRF kit.

[5] = target: T1, 5-HT2A; test: Serotonin 5-HT2A in vitro cellular IPOne agonism assay; format: cell-based; set-up: host or cells: CHO-K1; conditions: CHO-K1 cells, 60 min
Protocol: as §1, with “Agonism” for “Antagonism”, “FAST-0505I)” for “FAST-0505I) in antagonism mode”
For agonist testing, the medium was removed and 20 μl of assay buffer plus 20 μl of test compound or reference agonist were added in each well. The plate was incubated for 60 min. at 37° C. with 5% CO2.
After addition of the lysis buffer containing IP1-d2 and anti-IP1 cryptate detection reagents, plates were incubated 1-hour at room temperature, and fluorescence ratios were measured according to the manufacturer specification, with the HTRF kit.

[6] = target: T1, 5-HT2A; test: Serotonin 5-HT2A in vitro radioligand binding competition assay; set-up: purchased Epics Therapeutics S.A. (Belgium), contract assay FAST-0505B; host or cells: membrane extracts; conditions: [3H]-DOI radiotracer, membrane extracts, read-out: 5HT2A R[…] ACTIVITY
Protocol: Serotonin 5-HT2A In Vitro Radioligand Binding Competition Assay. The 5-HT2A radioligand binding competition assay was performed at Epics Therapeutics S.A. (Belgium, FAST-0505B) using conventional methods. Briefly, competition binding was performed in duplicate in the wells of a 96 well plate (Master Block, Greiner, 786201) containing binding buffer (optimized for each receptor), membrane extracts (amount of protein/well optimized for each receptor), radiotracer [^3H]-DOI (final concentration optimized for each receptor) and test compound. Nonspecific binding was determined by co-incubation with 200-fold excess of cold competitor. The samples were incubated in a final volume of 0.1 ml at a temperature and for a duration optimized for each receptor and then filtered over filter plates. Filters were washed six times with 0.5 ml of ice-cold washing buffer (optimized for each receptor) and 50 μl of Microscint 20 (Packard) were added in each well. The plates were incubated 15 min on an orbital shaker and then counted with a TopCount™ for 1 min/well.

T1 sequence (P28223 whole entry): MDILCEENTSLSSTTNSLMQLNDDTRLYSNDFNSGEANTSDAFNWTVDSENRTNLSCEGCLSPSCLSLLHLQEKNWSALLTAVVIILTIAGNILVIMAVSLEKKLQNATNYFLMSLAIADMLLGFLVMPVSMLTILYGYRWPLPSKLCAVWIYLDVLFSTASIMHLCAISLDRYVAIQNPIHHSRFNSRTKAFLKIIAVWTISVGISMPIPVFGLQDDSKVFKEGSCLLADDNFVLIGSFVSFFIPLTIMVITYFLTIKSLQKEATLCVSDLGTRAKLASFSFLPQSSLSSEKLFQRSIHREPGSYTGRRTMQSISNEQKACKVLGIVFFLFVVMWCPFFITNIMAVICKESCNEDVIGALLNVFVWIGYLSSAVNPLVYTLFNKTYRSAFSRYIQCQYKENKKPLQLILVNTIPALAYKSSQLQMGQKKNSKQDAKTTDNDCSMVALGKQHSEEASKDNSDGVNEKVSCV

Compound | activation of the 5HT2A sensor assay [1] | IC50 [4] [nM] | EC50 ([5]; benzothiophenes) [nM] | IC50 ([6]; benzothiophenes) [nM] | further results
5-MeO-DMT [Compound 5-MeO-DMT] | activate the 5HT2A sensor assay in agonist mode |  |  |  | head-twitch response (HTR) [2]: robust, dose-dependent head-twitch response
CCN(CC)C(=O)[C@@H]1C=C2c3cccc4[nH]c(Br)c(c34)C[C@H]2N(C)C1 [BOL148] | do not activate the 5HT2A sensor assay in agonist mode |  |  |  | competition with 5-HT at 5HT2A in the sensor assay [3]: can compete with 5HT binding to 5HT2A
CCN(CC)CCc1c[nH]c2cc(F)ccc12 [Compound 6-F-DET, 6-F-DET] | do not activate the 5HT2A sensor assay in agonist mode |  |  |  | competition with 5-HT at 5HT2A in the sensor assay [3]: can compete with 5HT binding to 5HT2A
COc1cccc2oc3c(c12)CN(C1CCC1)CCC3 [Compound 14, 2-cyclobutyl-10-methoxy-2,3,4,5-tetrahydro-1H-benzofuro[3,2-c]azepine] |  | 101 to 1000 |  |  | EC50 ([5]; benzofurans): 1000 to 10000 nM; IC50 ([6]; benzofurans): 1000 to 10000 nM
CN1CCc2oc3cc(F)ccc3c2CC1 [Compound 23, 8-fluoro-3-methyl-2,3,4,5-tetrahydro-1H-benzofuro[2,3-d]azepine] |  | 101 to 1000 |  |  | EC50 ([5]; benzofurans): 101 to 1000 nM; IC50 ([6]; benzofurans): 101 to 1000 nM
c1ccc2c3c(oc2c1)CCN(C1CCC1)CC3 [Compound 28, 3-cyclobutyl-2,3,4,5-tetrahydro-1H-benzofuro[2,3-d]azepine] |  | > 10000 |  |  | EC50 ([5]; benzofurans): > 10000 nM; IC50 ([6]; benzofurans): 1000 to 10000 nM
CN1CCc2oc3ccccc3c2CC1 [Compound 30, 3-methyl-2,3,4,5-tetrahydro-1H-benzofuro[2,3-d]azepine] |  | 101 to 1000 |  |  | EC50 ([5]; benzofurans): > 10000 nM; IC50 ([6]; benzofurans): 101 to 1000 nM
Fc1ccc2c3c(sc2c1)CCN(C1CCC1)CC3 [Compound 32, 3-cyclobutyl-8-fluoro-2,3,4,5-tetrahydro-1H-benzo[4,5]thieno[2,3-d]azepine] |  | 10 to 100 | > 10000 | 10 to 100 | 
CN1CCc2sc3cc(F)ccc3c2CC1 [Compound 33, 8-fluoro-3-methyl-2,3,4,5-tetrahydro-1H-benzo[4,5]thieno[2,3-d]azepine] |  | 10 to 100 | 10 to 100 | 10 to 100 | 
COc1ccc2c3c(sc2c1)CCN(C)CC3 [Compound 34, 8-methoxy-3-methyl-2,3,4,5-tetrahydro-1H-benzo[4,5]thieno[2,3-d]azepine] |  | 101 to 1000 | 1000 to 10000 | 1000 to 10000 | 
c1ccc(COc2cccc3oc4c(c23)CCNCC4)cc1 [Compound 47, 10-(benzyloxy)-2,3,4,5-tetrahydro-1H-benzofuro[2,3-d]azepine] |  | 101 to 1000 |  |  | EC50 ([5]; benzofurans): 1000 to 10000 nM; IC50 ([6]; benzofurans): 101 to 1000 nM
CN1CCc2sc3ccccc3c2CC1 [Compound 72, 3-methyl-2,3,4,5-tetrahydro-1H-benzo[4,5]thieno[2,3-d]azepine] |  | 10 to 100 | 101 to 1000 | 10 to 100 | 
c1ccc2c3c(sc2c1)CCN(C1CCC1)CC3 [Compound 73, 3-cyclobutyl-2,3,4,5-tetrahydro-1H-benzo[4,5]thieno[2,3-d]azepine] |  | 101 to 1000 | > 10000 | 101 to 1000 | 
CN1CCc2sc3cc(OC(F)(F)F)ccc3c2CC1 [Compound 75, 3-methyl-8-(trifluoromethoxy)-2,3,4,5-tetrahydro-1H-benzo[4,5]thieno[2,3-d]azepine] |  | 101 to 1000 | > 10000 | 1000 to 10000 | 
CN(C)CCc1c[nH]c2ccccc12 [DMT, N,N-dimethyltryptamine] | activate the 5HT2A sensor assay in agonist mode |  |  |  | 
O=C(c1ccc(F)cc1)C1CCN(CCn2c(=O)[nH]c3ccccc3c2=O)CC1 [Ketanserin] | do not activate the 5HT2A sensor assay in agonist mode |  |  |  | competition with 5-HT at 5HT2A in the sensor assay [3]: can compete with 5HT binding to 5HT2A
CCN(CC)C(=O)[C@@H]1C=C2c3cccc4[nH]cc(c34)C[C@H]2N(C)C1 [LSD] | activate the 5HT2A sensor assay in agonist mode |  |  |  | 
DOI | activate the 5HT2A sensor assay in agonist mode |  |  |  | 
L-MDMA | do not activate the 5HT2A sensor assay in agonist mode |  |  |  | 
R-MDMA | do not activate the 5HT2A sensor assay in agonist mode |  |  |  | 

Reference: US20250051346A1 (priority 2021, published 2025)
